The values that follow come from patent publication EP0942911B1, “BENZOPYRANOPYRROLE AND BENZOPYRANOPYRIDINE ALPHA-1 ADRENERGIC COMPOUNDS” (Abbott Laboratories, priority 1996, dated 1998).

What all share (test): biochemical
For one experiment, the target named is T1, α-1a adrenoreceptor (Bos taurus, UniProt P18130).
T1 sequence (P18130 1-466): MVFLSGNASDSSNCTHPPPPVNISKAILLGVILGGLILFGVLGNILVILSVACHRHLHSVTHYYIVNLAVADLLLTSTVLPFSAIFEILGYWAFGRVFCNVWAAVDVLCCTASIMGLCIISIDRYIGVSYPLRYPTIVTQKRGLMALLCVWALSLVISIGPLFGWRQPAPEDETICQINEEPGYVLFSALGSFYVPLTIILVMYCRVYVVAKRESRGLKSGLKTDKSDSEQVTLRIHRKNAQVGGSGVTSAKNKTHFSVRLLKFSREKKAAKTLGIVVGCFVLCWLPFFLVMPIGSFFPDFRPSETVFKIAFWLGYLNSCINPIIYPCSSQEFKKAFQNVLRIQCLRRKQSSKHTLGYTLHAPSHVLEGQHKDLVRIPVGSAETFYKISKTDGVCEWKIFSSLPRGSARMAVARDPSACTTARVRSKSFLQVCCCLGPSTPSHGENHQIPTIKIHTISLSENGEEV
Format: binding, bovine. The conditions noted are these: [3H]-prazosin radioligand; cloned receptor in LTK cell membranes; read-out: Radioligand Binding (Ki, nM) 1a (Bovine). In a few lines: (§1)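 Membranes were prepared from high-density single-cell clones of transfected LTK cells, plus rat submaxillary gland for the α-1A site. Binding was measured by radioligand displacement with scintillation counting.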

In a further experiment the target is T2, α-1b adrenoreceptor (Mesocricetus auratus, UniProt P18841).
T2 sequence (P18841 1-515): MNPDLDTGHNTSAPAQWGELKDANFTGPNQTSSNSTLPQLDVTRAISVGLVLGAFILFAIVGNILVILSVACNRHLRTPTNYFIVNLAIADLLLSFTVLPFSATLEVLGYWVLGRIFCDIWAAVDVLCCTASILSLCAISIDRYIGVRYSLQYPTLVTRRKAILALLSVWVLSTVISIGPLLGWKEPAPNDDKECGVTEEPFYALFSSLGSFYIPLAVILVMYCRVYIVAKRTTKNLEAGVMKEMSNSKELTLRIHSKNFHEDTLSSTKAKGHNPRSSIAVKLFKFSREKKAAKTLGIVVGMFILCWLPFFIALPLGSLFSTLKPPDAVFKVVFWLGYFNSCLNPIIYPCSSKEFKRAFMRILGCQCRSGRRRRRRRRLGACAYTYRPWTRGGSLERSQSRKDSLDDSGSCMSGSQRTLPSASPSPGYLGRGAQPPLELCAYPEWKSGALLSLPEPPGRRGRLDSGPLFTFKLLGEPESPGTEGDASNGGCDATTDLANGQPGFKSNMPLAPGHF
It counts as binding, hamster. The conditions noted are these: [3H]-prazosin radioligand; cloned receptor in LTK cell membranes; read-out: Radioligand Binding (Ki, nM) 1b (Hamster). In a few lines:
as §1

A further experiment deals with T3, α-1d adrenoreceptor (Rattus norvegicus, UniProt P23944).
T3 sequence (P23944 1-561): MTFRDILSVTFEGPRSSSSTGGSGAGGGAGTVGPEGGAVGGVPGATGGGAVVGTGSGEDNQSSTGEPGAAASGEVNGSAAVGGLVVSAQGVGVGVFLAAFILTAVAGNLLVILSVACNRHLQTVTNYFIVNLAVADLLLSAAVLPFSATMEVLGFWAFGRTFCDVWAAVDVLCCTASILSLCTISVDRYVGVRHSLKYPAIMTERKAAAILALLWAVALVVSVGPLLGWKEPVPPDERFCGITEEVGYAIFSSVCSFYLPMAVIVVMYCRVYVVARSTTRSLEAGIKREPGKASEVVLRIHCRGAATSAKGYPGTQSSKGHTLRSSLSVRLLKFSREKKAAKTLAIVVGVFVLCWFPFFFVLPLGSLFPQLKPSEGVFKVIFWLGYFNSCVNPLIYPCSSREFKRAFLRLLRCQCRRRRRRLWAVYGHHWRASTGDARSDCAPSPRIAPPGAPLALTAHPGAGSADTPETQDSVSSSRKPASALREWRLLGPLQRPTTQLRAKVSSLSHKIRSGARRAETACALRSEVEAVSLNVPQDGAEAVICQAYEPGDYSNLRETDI
It counts as binding. The note with it: [3H]-prazosin radioligand; cloned receptor in LTK cell membranes; read-out: Radioligand Binding (Ki, nM) 1d (Rat). The gist of the method:
as §1

One may read the Ki as the dissociation constant of the complex between target and ligand, obtained from inhibition or displacement.

Counter-ions that a name gives are not always drawn.

As for `COc1cccc2c1[C@@H]1CN(CCCCn3c(=O)[nH]c4c(sc5c(Cl)nccc54)c3=O)C[C@@H]1CO2` [Example 53, 3-[4-((3aR,9bR)-cis-9-Methoxy-1,2,3,3a,4,9b-hexahydro-[1]-benzopyrano[3,4-c]pyrrol-2-yl)butyl]-6-chloro-pyrido[4',3':4,5]thieno[3,2-d]pyrimidine-2,4(1H,3H)-dione], the results for the Ki on α-1a adrenoreceptor, at α-1b adrenoreceptor and at α-1d adrenoreceptor were 0.037 nM, 9.42 nM and 0.664 nM, respectively.

As for `COc1cccc2c1[C@@H]1CN(CCCCn3c(=O)[nH]c4c(sc5c(Cl)nccc54)c3=O)C[C@H]1CO2` [Example 54, 3-[4-((3aS,9bR)-trans-9-Methoxy-1,2,3,3a,4,9b-hexahydro-[1]-benzopyrano[3,4-c]pyrrol-2-yl)butyl]-6-chloro-pyrido[4',3':4,5]thieno[3,2-d]pyrimidine-2,4(1H,3H)-dione], the values for the Ki on α-1a adrenoreceptor, on α-1b adrenoreceptor and at α-1d adrenoreceptor were 0.187 nM, 1 nM and 0.173 nM, respectively.

For the compound `COc1cccc2c1[C@@H]1CCN(CCCCn3c(=O)[nH]c4c(sc5cccnc54)c3=O)C[C@H]1CO2` [Example 95, 3-[4-((4aS,10bR)-trans-10-Methoxy-1,3,4,4a,5,10b-hexahydro-2H-[1]-benzopyrano[3,4-c]pyrido-3-yl)butyl]-pyrido[2',3':4,5]thieno[3,2-d]pyrimidine-2.4(1H,3H)-dione dihydrochloride], the Ki on α-1a adrenoreceptor amounted to 1.8 nM; at α-1b adrenoreceptor, 21.6 nM; at α-1d adrenoreceptor, 23 nM.

As to `COc1cccc2c1[C@@H]1CCN(CCCCn3c(=O)[nH]c4c(sc5ncc(Cl)nc54)c3=O)C[C@H]1CO2` [Example 97, 3-[4-((4aS,10bR)-trans-10-Methoxy-1,3,4,4a,5,10b-hexahydro-2H-[1]-benzopyrano[3,4-c]pyrido-3-yl)butyl]-8-chloro-pyrazino[2',3':4,5]thieno[3,2-d]pyrimidine-2,4(1H,3H)-dione dihydrochloride], the Ki at α-1a adrenoreceptor was determined as 0.097 nM; at α-1b adrenoreceptor it was 4.7 nM; on α-1d adrenoreceptor it was 0.247 nM.
